According to PubChem BioAssay AID248 (DTP/NCI, 2004):
Toxic doses and inconclusive results are not listed. Rule as the data show it: active = T/C of 150% or more; inactive = T/C below 125%.

Test system: L1210 leukemia ip in BDF1 mice, survival T/C
Assay: NCI In Vivo Anticancer Drug Screen. Data for tumor model L1210 Leukemia (intraperitoneal) in B6D2F1 (BDF1) mice
Settings: endpoint: mean survival time, higher = longer survival
How it was run: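 Antitumor effect is assessed in tumor-bearing animals. Survival in the compound arm is compared with a vehicle-dosed control arm and expressed as their quotient.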

[1] = dose: 100.0 mg/kg/injection, schedule: Q01DX001 (ip), vehicle: saline
[2] = dose: 100.0 mg/kg/injection, schedule: Q04DX003 (ip), vehicle: saline
[3] = dose: 200.0 mg/kg/injection, schedule: Q01DX001 (ip), vehicle: saline
[4] = dose: 200.0 mg/kg/injection, schedule: Q04DX003 (ip), vehicle: saline
[5] = dose: 400.0 mg/kg/injection, schedule: Q01DX001 (ip), vehicle: saline
[6] = dose: 400.0 mg/kg/injection, schedule: Q04DX003 (ip), vehicle: saline
[7] = dose: 100.0 mg/kg/injection, schedule: Q01DX009 (ip), vehicle: Klucel (hydroxypropylcellulose) (HPC)
[8] = dose: 200.0 mg/kg/injection, schedule: Q01DX009 (ip), vehicle: Klucel (hydroxypropylcellulose) (HPC)
[9] = dose: 400.0 mg/kg/injection, schedule: Q01DX009 (ip), vehicle: Klucel (hydroxypropylcellulose) (HPC)
[10] = dose: 100.0 mg/kg/injection, schedule: Q01DX009 (ip), vehicle: saline with Tween-80
[11] = dose: 200.0 mg/kg/injection, schedule: Q01DX009 (ip), vehicle: saline with Tween-80
[12] = dose: 400.0 mg/kg/injection, schedule: Q01DX009 (ip), vehicle: saline with Tween-80
[13] = dose: 75.0 mg/kg/injection, schedule: Q01DX001 (ip), vehicle: saline
[14] = dose: 150.0 mg/kg/injection, schedule: Q01DX001 (ip), vehicle: saline
[15] = dose: 100.0 mg/kg/injection, schedule: Q04DX002 (ip), vehicle: Klucel (hydroxypropylcellulose) (HPC)
[16] = dose: 200.0 mg/kg/injection, schedule: Q04DX002 (ip), vehicle: Klucel (hydroxypropylcellulose) (HPC)
[17] = dose: 400.0 mg/kg/injection, schedule: Q04DX002 (ip), vehicle: Klucel (hydroxypropylcellulose) (HPC)
[18] = dose: 100.0 mg/kg/injection, schedule: Q04DX003 (ip), vehicle: Klucel (hydroxypropylcellulose) (HPC)
[19] = dose: 200.0 mg/kg/injection, schedule: Q04DX003 (ip), vehicle: Klucel (hydroxypropylcellulose) (HPC)

Measured: T/C

CC12CCC(C3=C1OC(=O)C(c1ccccc1)(c1ccccc1)C3=O)C2(C)C (centres undefined)
inactive: [1] 105 % of control | dose: 100.0 mg/kg/injection, schedule: Q01DX009 (ip), vehicle: saline 94 % of control | [2] 103 % of control | [3] 113 % of control | dose: 200.0 mg/kg/injection, schedule: Q01DX009 (ip), vehicle: saline 102 % of control | [4] 97 % of control | [5] 97 % of control | dose: 400.0 mg/kg/injection, schedule: Q01DX009 (ip), vehicle: saline 100 % of control | [6] 103 % of control

O=C(NC1CCCCC1)Oc1cccc(NC(=S)Nc2ccccc2)c1
inactive: [7] 100 % of control | [8] 97 % of control | [9] 92 % of control

COc1ccc(/C=C/C(=O)c2ccc(OC)c(OC)c2)cc1OC
inactive: [10] 100 % of control | [11] 105 % of control | [12] 102 % of control

CC1CCCCC1O (centres undefined)
inactive: [10] 102 % of control | [11] 92 % of control

Oc1cccc2ccc(Cl)nc12
inactive: dose: 75.0 mg/kg/injection, schedule: Q01DX001 (ip), vehicle: carboxymethylcellulose (CMC) 97 % of control | dose: 150.0 mg/kg/injection, schedule: Q01DX001 (ip), vehicle: carboxymethylcellulose (CMC) 101 % of control | dose: 300.0 mg/kg/injection, schedule: Q01DX001 (ip), vehicle: carboxymethylcellulose (CMC) 97 % of control

CCCCC(=O)NC1CCCCC1
inactive: [13] 101 % of control | [14] 95 % of control

C[N+](C)(C)c1ccc(NC(=O)c2ccc(C(=O)Nc3ccc([N+](C)(C)C)cc3)cc2)cc1
inactive: dose: 0.5 mg/kg/injection, schedule: Q01DX Z (ip), vehicle: saline 93 % of control | dose: 1.0 mg/kg/injection, schedule: Q01DX Z (ip), vehicle: saline 102 % of control | dose: 2.0 mg/kg/injection, schedule: Q01DX Z (ip), vehicle: saline 97 % of control

O=C(NO)c1ccccc1F
inactive: [1] 97 % of control | [3] 110 % of control | [5] 93 % of control

O=C1Nc2cccc3c2N(CCC3)C2=C1CCC2
inactive: [15] 105 % of control | [16] 105 % of control | [17] 108 % of control

CCN(CC)N=Nc1ccccc1-c1nc(N)nc(N)n1
inactive: [18] 95 % of control | [19] 108 % of control

c1ccc(CN2CCOCC2)nc1
inactive: [1] 96 % of control | [3] 113 % of control | [5] 98 % of control

CSc1ncnc2c1nnn2C1OC(CO)C(O)C1O (centres undefined)
inactive: dose: 12.5 mg/kg/injection, schedule: Q01DX001 (ip), vehicle: saline 97 % of control | dose: 25.0 mg/kg/injection, schedule: Q01DX001 (ip), vehicle: saline 103 % of control | dose: 50.0 mg/kg/injection, schedule: Q01DX001 (ip), vehicle: saline 115 % of control | [13] 114 % of control | [1] 110 % of control | [14] 110 % of control

CN(C)c1cc(O)ccc1[N+](=O)[O-]
inactive: [2] 103 % of control | [4] 95 % of control | [6] 100 % of control

CN(C)c1ccc(C=O)c(Br)c1
inactive: [7] 96 % of control | [18] 96 % of control | [8] 91 % of control | [19] 111 % of control | [9] 103 % of control | dose: 400.0 mg/kg/injection, schedule: Q04DX003 (ip), vehicle: Klucel (hydroxypropylcellulose) (HPC) 100 % of control

CC(C)(C)S(=O)(=O)C(C)(C)C
inactive: [10] 93 % of control | [11] 90 % of control | [12] 88 % of control

C1CCCCCC(N2CCCC2)CCCCC1
inactive: dose: 6.0 mg/kg/injection, schedule: Q01DX009 (ip), vehicle: saline 107 % of control | dose: 12.0 mg/kg/injection, schedule: Q01DX009 (ip), vehicle: saline 102 % of control | dose: 12.5 mg/kg/injection, schedule: Q04DX003 (ip), vehicle: saline 100 % of control | dose: 25.0 mg/kg/injection, schedule: Q01DX009 (ip), vehicle: saline 100 % of control | dose: 25.0 mg/kg/injection, schedule: Q04DX003 (ip), vehicle: saline 95 % of control

O=C(COc1cccc(Cl)c1)NCc1cccc(NC(=O)c2cccc(S(=O)(=O)F)c2)c1
inactive: dose: 100.0 mg/kg/injection, schedule: Q01DX001 (ip), vehicle: gum acacia 97 % of control | dose: 200.0 mg/kg/injection, schedule: Q01DX001 (ip), vehicle: gum acacia 93 % of control | dose: 400.0 mg/kg/injection, schedule: Q01DX001 (ip), vehicle: gum acacia 98 % of control

N#CC(Sc1ccccc1)c1ccccc1 (centres undefined)
inactive: [15] 119 % of control | [16] 97 % of control | [17] 86 % of control

Cc1c(Cl)c(C)c(Cl)c(O)c1Cl (tested in a mixture with another compound)
inactive: dose: 25.0 mg/kg/injection, schedule: Q01DX009 (ip), vehicle: saline with Tween-80 97 % of control | dose: 50.0 mg/kg/injection, schedule: Q01DX009 (ip), vehicle: saline with Tween-80 93 % of control | dose: 100.0 mg/kg/injection, schedule: Q04DX002 (ip), vehicle: other 95 % of control | dose: 200.0 mg/kg/injection, schedule: Q04DX002 (ip), vehicle: other 90 % of control

CC(=O)OCC1OC(n2ccc(NC(=S)Nc3ccn(C4OC(COC(C)=O)C(OC(C)=O)C4OC(C)=O)c(=O)n3)nc2=O)C(OC(C)=O)C1OC(C)=O (centres undefined)
inactive: [5] 100 % of control | [6] 105 % of control | dose: 800.0 mg/kg/injection, schedule: Q01DX001 (ip), vehicle: saline 96 % of control | dose: 800.0 mg/kg/injection, schedule: Q01DX009 (ip), vehicle: saline 116 % of control | dose: 800.0 mg/kg/injection, schedule: Q04DX003 (ip), vehicle: saline 98 % of control | dose: 1600.0 mg/kg/injection, schedule: Q01DX001 (ip), vehicle: saline 96 % of control | dose: 1600.0 mg/kg/injection, schedule: Q04DX003 (ip), vehicle: saline 100 % of control

Cc1nnc(NC(=O)C(Cl)(Cl)Cl)s1
inactive: dose: 100.0 mg/kg/injection, schedule: Q01DX001 (ip), vehicle: other 94 % of control | dose: 100.0 mg/kg/injection, schedule: Q04DX003 (ip), vehicle: other 96 % of control | dose: 200.0 mg/kg/injection, schedule: Q01DX001 (ip), vehicle: other 105 % of control | dose: 200.0 mg/kg/injection, schedule: Q04DX003 (ip), vehicle: other 109 % of control | dose: 400.0 mg/kg/injection, schedule: Q01DX001 (ip), vehicle: other 104 % of control | dose: 400.0 mg/kg/injection, schedule: Q04DX003 (ip), vehicle: other 96 % of control

COC(=O)[CH](C[N+](=O)[O-])[Hg][Cl] (centres undefined)
inactive: dose: 3.12 mg/kg/injection, schedule: Q01DX009 (ip), vehicle: saline 94 % of control | dose: 6.25 mg/kg/injection, schedule: Q01DX009 (ip), vehicle: saline 94 % of control
